# Test results reported in ChEMBL document CHEMBL3045315, “Effect of ring A and ring B substitution on the cytotoxic potential of pyrazole tethered chalcones” (Med Chem Res, 2012).
# Tests used:
# Assay type in all cases: functional, cell-based
# PC-3 = test: Cytotoxicity against Homo sapiens (human) PC3 cells after 48 hr by SRB assay; settings: PC-3, 48 h
# HEp-2 = test: Cytotoxicity against Homo sapiens (human) Hep2 cells after 48 hr by SRB assay; settings: HEp-2, 48 h
# IMR-32 = test: Cytotoxicity against Homo sapiens (human) IMR32 cells after 48 hr by SRB assay; settings: IMR-32, 48 h
# OVCAR = test: Cytotoxicity against Homo sapiens (human) OVCAR cells after 48 hr by SRB assay
SMILES,IC50 (PC-3) [µM],IC50 (HEp-2) [µM],IC50 (IMR-32) [µM],IC50 (OVCAR) [µM]
CC(=O)N1N=C(c2cccc3ccccc23)CC1c1ccc2c(c1)OCO2 (stereo not given),2.09,1.07,1.91,3.76
COc1ccc(OC)c(C2CC(c3ccco3)=NN2C(C)=O)c1 (stereo not given),11.2,13.3,11.8,11
CC(=O)N1N=C(c2cccc([N+](=O)[O-])c2)CC1c1ccccc1 (stereo not given),8.71,8.93,7.89,9.92
COc1cc(C2CC(c3cccc4ccccc34)=NN2C(C)=O)ccc1O (stereo not given),2.13,1.13,1.78,2.73
CC(=O)N1N=C(c2cccc3ccccc23)CC1c1cccc([N+](=O)[O-])c1 (stereo not given),3.13,4.08,3.96,3.65
COc1cc(C2CC(c3ccccc3)=NN2C(C)=O)cc(OC)c1OC (stereo not given),3.39,3.56,3.38,4.64
CC(=O)N1N=C(c2ccco2)CC1c1ccc(C)cc1 (stereo not given),21.2,19.3,29.1,11.2
COc1ccc(C2CC(c3ccc(Br)cc3)=NN2C(C)=O)cc1OC (stereo not given),7.76,8.87,5.54,5.59
COc1ccc(C2CC(c3cccc([N+](=O)[O-])c3)=NN2C(C)=O)cc1 (stereo not given),7.83,8.21,6.65,8.76
CC(=O)N1N=C(c2ccco2)CC1c1cccc([N+](=O)[O-])c1 (stereo not given),20,30,28.9,23.4
CC(=O)N1N=C(c2ccc3ccccc3c2)CC1c1ccccc1 (stereo not given),7.4,8.4,10,21.5
CC(=O)N1N=C(c2ccc3ccccc3c2)CC1c1ccc2ccccc2c1 (stereo not given),0.2,0.17,0.19,0.23
CC(=O)N1N=C(c2ccco2)CC1c1ccc([N+](=O)[O-])cc1 (stereo not given),21.3,21.8,35.8,23
CC(=O)O[C@H]1C(=O)[C@@]2(C)[C@H]([C@H](OC(=O)c3ccccc3)[C@]3(O)C[C@H](OC(=O)[C@H](O)[C@@H](NC(=O)c4ccccc4)c4ccccc4)C(C)=C1C3(C)C)[C@]1(OC(C)=O)CO[C@@H]1C[C@@H]2O [PACLITAXEL],0.12,0.11,0.03,0.06
COc1ccc(C2CC(c3ccco3)=NN2C(C)=O)cc1 (stereo not given),15.5,15.6,14.5,14.3
CC(=O)N1N=C(c2ccccc2)CC1c1ccccc1 (stereo not given),8.69,11.8,11.9,23.5
CC(=O)N1N=C(c2cccc([N+](=O)[O-])c2)CC1c1cccc(Cl)c1Cl (stereo not given),18.2,27.6,25.3,19.7
COc1ccc(C2CC(c3cccc4ccccc34)=NN2C(C)=O)cc1OC (stereo not given),2.01,1.03,1.68,2.69
COc1ccc(C2CC(c3ccco3)=NN2C(C)=O)cc1OC (stereo not given),12.3,9.99,11.2,31.2
CC(=O)N1N=C(c2ccco2)CC1c1cccc(Cl)c1Cl (stereo not given),61.2,43.2,62.2,81.2
CC(=O)N1N=C(c2ccco2)CC1c1cccc(O)c1 (stereo not given),16.5,10,11.8,13.2
CC(=O)N1N=C(c2cccc3ccccc23)CC1/C=C/c1ccccc1 (stereo not given),21.1,21.1,26.7,24
COc1ccc(C2CC(c3ccc(Br)cc3)=NN2C(C)=O)cc1 (stereo not given),17.8,17.9,15.7,16.9
CC(=O)N1N=C(c2ccc3ccccc3c2)CC1c1cccc([N+](=O)[O-])c1 (stereo not given),2.98,3.87,3.28,3.39
COc1ccc(OC)c(C2CC(c3ccc4ccccc4c3)=NN2C(C)=O)c1 (stereo not given),1.66,1.09,1.32,2.33
CC(=O)N1N=C(c2ccc(Br)cc2)CC1c1ccc2c(c1)OCO2 (stereo not given),11,8.72,9.89,11.2
CC(=O)N1N=C(c2cccc3ccccc23)CC1c1ccccc1 (stereo not given),8.46,11.2,7.76,7.82
CC(=O)N1N=C(c2cccc3ccccc23)CC1c1ccccc1[N+](=O)[O-] (stereo not given),3.54,3.96,3.98,4.32
CC(=O)N1N=C(c2ccco2)CC1c1ccc(N(C)C)cc1 (stereo not given),16.7,16,16.1,14.6
CC(=O)N1N=C(c2ccco2)CC1c1ccccc1[N+](=O)[O-] (stereo not given),19,47.9,27.9,28.3
